Legend:
[1] = test system: Enterococcus faecium ATCC 27270; details: E. faecium ATCC 27270
[2] = test system: Enterococcus faecalis ATCC 29212; details: E. faecalis ATCC 29212
E. coli (ATCC BAA-2452) = assay: Broad-spectrum activity against Gram-Negative bacteria (MIC); type: cell-based; details: Table 16, Gram-negative panel
[3] = test system: A. baumannii (ATCC BAA-1605); assay: as above; type: cell-based; details: Table 16, Gram-negative panel
B. subtilis (ATCC-6633) = assay: Broad-spectrum activity against Gram-Positive bacteria (MIC); type: cell-based; set-up: unit not given here
[4] = test system: Streptococcus pneumoniae ATCC 49619; details: S. pneumoniae ATCC 49619
[5] = test system: Methicillin-resistant Staphylococcus aureus MRSA (ATCC BAA-1556); details: MRSA ATCC BAA-1556
[6] = test system: Escherichia coli (ATCC 25922); details: E. coli ATCC 25922
[7] = test system: Streptococcus pneumoniae ATCC 51938; details: S. pneumoniae ATCC 51938
[8] = test system: P. aeruginosa (ATCC BAA-1744); assay: Broad-spectrum activity against Gram-Negative bacteria (MIC); type: cell-based; details: Table 16, Gram-negative panel
S. aureus ATCC 29213 = details: S. aureus ATCC 29213
[9] = test system: Pseudomonas aeruginosa (ATCC 27883); details: P. aeruginosa ATCC 27883
B. cereus (ATCC-13061) = assay: Broad-spectrum activity against Gram-Positive bacteria (MIC); type: cell-based; set-up: unit not given here
[10] = test system: Enterococcus faecalis ATCC 51575; details: E. faecalis ATCC 51575
[11] = test system: P. aeruginosa (ATCC 10145); assay: Broad-spectrum activity against Gram-Negative bacteria (MIC); type: cell-based; details: Table 16, Gram-negative panel
[12] = test system: Klebsiella pneumoniae ATCC 13883; details: Table 16, Gram-negative panel
[13] = test system: Klebsiella pneumoniae (ATCC BAA-1705); details: Table 16, Gram-negative panel
[14] = test system: Enterococcus faecium ATCC 700221; details: E. faecium ATCC 700221

Row | Substance | Broad-spectrum activity E. faecium (ATCC 27270) [1] | Broad-spectrum activity E. faecalis (ATCC 29212) [2] | MIC E. coli (ATCC BAA-2452) (E. coli (ATCC BAA-2452)) [µg/mL] | MIC A. baumannii (ATCC BAA-1605) [3] [µg/mL] | Broad-spectrum activity B. subtilis (ATCC-6633) (B. subtilis (ATCC-6633)) | Broad-spectrum activity S. pneumoniae (ATCC 49619) [4] | MIC MRSA ATCC BAA-1556 [5] [µg/mL] | MIC E. coli ATCC 25922 [6] [µg/mL] | Broad-spectrum activity S. pneumoniae (ATCC 51938) [7] | MIC P. aeruginosa (ATCC BAA-1744) [8] [µg/mL] | MIC S. aureus ATCC 29213 (S. aureus ATCC 29213) [µg/mL] | MIC P. aeruginosa ATCC 27883 [9] [µg/mL] | Broad-spectrum activity B. cereus (ATCC-13061) (B. cereus (ATCC-13061)) | Broad-spectrum activity E. faecalis (ATCC 51575) [10] | MIC P. aeruginosa (ATCC 10145) [11] [µg/mL] | MIC K. pneumonia (ATCC 13883) [12] [µg/mL] | MIC K. pneumonia (ATCC BAA-1705) [13] [µg/mL] | Broad-spectrum activity E. faecium (ATCC 700221) [14]
1 | c[Arg-Arg-Arg-arg-Dip-Dip-Dip] [IFX-063] | 3.1 | 6.2 | 12.5 | 6.2 | 1.5 | 25 | 3.1 | 12.5 | 12.5 | 25 | 3.1 | 12.5 | 3.1 | 12.5 | 25 | 50 | 12.5 | 1.5
2 | c[Arg-Arg-Arg-Arg-dip-Trp-Dip] [IFX-090] | 3.1 | 6.2 | 12.5 | 12.5 | 1.5 | 25 | 3.1 | 12.5 | 12.5 | 25 | 3.1 | 12.5 | 6.2 | 12.5 | 25 | 50 | 25 | 6.2
3 | c[Arg-Arg-Arg-Arg-dip-Trp-dip] [IFX-098] | 3.1 | 6.2 | 25 | 12.5 | 1.5 | 50 | 1.5 | 12.5 | 25 | 25 | 3.1 | 12.5 | 3.1 | 12.5 | 25 | 50 | 25 | 6.2
4 | c[arg-Arg-arg-Arg-dip-Trp-dip] [IFX-096] | 3.1 | 12.5 | 12.5 | 25 | 3.1 | 25 | 3.1 | 6.2 | 25 | 50 | 3.1 | 6.2 | 6.2 | 12.5 | 50 | 50 | 25 | 6.2
5 | c[arg-arg-arg-arg-dip-dip-dip] [IFX-067] | 3.1 | 6.2 | 12.5 | 12.5 | 1.5 | 25 | 1.5 | 6.2 | 12.5 | 25 | 3.1 | 12.5 | 3.1 | 6.2 | 50 | > 50 | 25 | 3.1

— US20220289794A1, “SYNTHETIC ANTIMICROBIAL PEPTIDES” (priority 2019, published 2022)
